Measured values as given in patent publication US6348445B1, “Biologically active peptides with reduced toxicity in animals and a method for preparing same” (priority 1992, dated 2002).
Like-named read-outs stand apart in the source and are kept apart here. *1 amine or outer side, *2 acyl side, *3 side chain or, on linkers, in order; H or OH if unused. Where a SMILES comes first, the peptide text is derived from it. Where no end group is shown, it is not given here. [ ]: non-standard residue; d: D form. The star is where a group is joined. hArg = N=C(N)NCCCC[C@H](N)C(=O)O; Suc = O=C(CCC(=O)[*:2])[*:1]; Octanoyl = CCCCCCCC(=O)*; Pentanoyl = CCCCC(=O)*

Legend:
S. mutans = assay: anaerobic anti-microbial susceptibility test (MIC); type: cell-based; parameters: unit not given here; conditions: 24-48 hours
[1] = system: E. coli ATCC strain 25922; assay: Minimal Inhibitory Concentration, microtiter broth dilution; type: cell-based; conditions: ATCC strain 25922
Procedure, shortened: (§1)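 Broth microdilution per NCCLS M7-T2: final peptide levels 0.25 to 256 μg/ml (twofold steps), inoculum 1-5×10^5 CFUs/ml in full-strength Mueller Hinton broth. MIC read as lowest concentration leaving the well clear after 16-20 hours at 37° C.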

[2] = system: P. aeruginosa strain ATCC 27853; type: cell-based
Procedure, shortened: as §1

P. gingivalis = conditions: anaerobic, 24-48 hours
C. albicans = type: cell-based
Procedure, shortened: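 Broth microdilution: mid-log organisms at 1-5×10^5 CFU/ml in Mueller Hinton broth exposed to 2-fold peptide series (0.25–256 μg/ml final). After 16-20 h at 37° C, MIC read as the lowest concentration leaving the well clear.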

A. viscosus = assay: anaerobic anti-microbial susceptibility test (MIC); type: cell-based; conditions: 24-48 hours

Compound | MIC S. mutans (S. mutans) | Minimal Inhibitory Concentration E [1] [µg/mL] | Minimal Inhibitory Concentration P ([2]; ATCC 27853) [µg/mL] | MIC P. gingivalis (strain) 9-14K-1 (P. gingivalis) | MIC P. gingivalis (strain) 381 (P. gingivalis) [μl/ml] | MIC P. gingivalis (strain) 450 (P. gingivalis) [μl/ml] | MIC P. gingivalis (strain) A7A1-28 (P. gingivalis) [μl/ml] | MIC P. gingivalis (strain) FAY-19M-1 (P. gingivalis) | Minimal Inhibitory Concentration CA (C. albicans) [µg/mL] | MIC A. viscos (A. viscosus) [μl/ml] | Minimal Inhibitory Concentration P ([2]; P. aeruginosa strain ATCC 27853, Table I)
CC[C@H](C)[C@H](NC(=O)[C@H](CCCCNC(=N)N)NC(=O)CNC(=O)[C@H](C)NC(=O)[C@@H](NC(=O)[C@H](CCCCNC(=N)N)NC(=O)[C@H](C)NC(=O)[C@@H](NC(=O)[C@H](CCCCNC(=N)N)NC(=O)CNC(=O)[C@H](C)NC(=O)[C@@H](NC(=O)[C@H](CCCCNC(=N)N)NC(=O)[C@H](C)NC(=O)[C@@H](NC(=O)[C@H](CCCCNC(=N)N)NC(=O)CNC(=O)[C@H](C)NC(=O)[C@@H](NC(=O)[C@@H](N)CCCCNC(=N)N)[C@@H](C)CC)[C@@H](C)CC)[C@@H](C)CC)[C@@H](C)CC)[C@@H](C)CC)C(=O)N[C@@H](C)C(N)=O [(SEQ ID NO: 66)-NH2, (Har Ile Ala Gly Har Ile Ala)3] (H-[hArg]IAG[hArg]IA[hArg]IAG[hArg]IA[hArg]IAG[hArg]IA-NH2) | 8 | 32 | 32 | 2 μl/ml | 16 | 4 | 4 | 8 μl/ml | 64 | 8 | 
CCCCCCCC(=O)N[C@@H](CCCCN)C(=O)N[C@H](C(=O)N[C@@H](C)C(=O)NCC(=O)N[C@@H](CCCCN)C(=O)N[C@H](C(=O)N[C@@H](C)C(=O)N[C@@H](CCCCN)C(=O)N[C@H](C(=O)N[C@@H](C)C(=O)NCC(=O)N[C@@H](CCCCN)C(=O)N[C@H](C(=O)N[C@@H](C)C(=O)N[C@@H](CCCCN)C(=O)N[C@H](C(=O)N[C@@H](C)C(=O)NCC(=O)N[C@@H](CCCCN)C(=O)N[C@H](C(=O)N[C@@H](C)C(=O)O)[C@@H](C)CC)[C@@H](C)CC)[C@@H](C)CC)[C@@H](C)CC)[C@@H](C)CC)[C@@H](C)CC [Oct-(SEQ ID NO: 27)-OH] (Octanoyl-KIAGKIAKIAGKIAKIAGKIA-OH) | 16 | 4 | 8 | 2 μl/ml | 2 | 1 | 1 | 2 μl/ml | 32 | 32 | 
CCCCCCCC(=O)N[C@@H](CCCCNC(=N)N)C(=O)N[C@H](C(=O)N[C@@H](C)C(=O)NCC(=O)N[C@@H](CCCCNC(=N)N)C(=O)N[C@H](C(=O)N[C@@H](C)C(=O)N[C@@H](CCCCNC(=N)N)C(=O)N[C@H](C(=O)N[C@@H](C)C(=O)NCC(=O)N[C@@H](CCCCNC(=N)N)C(=O)N[C@H](C(=O)N[C@@H](C)C(=O)N[C@@H](CCCCNC(=N)N)C(=O)N[C@H](C(=O)N[C@@H](C)C(=O)NCC(=O)N[C@@H](CCCCNC(=N)N)C(=O)N[C@H](C(=O)N[C@@H](C)C(N)=O)[C@@H](C)CC)[C@@H](C)CC)[C@@H](C)CC)[C@@H](C)CC)[C@@H](C)CC)[C@@H](C)CC [Oct-(SEQ ID NO: 66)-NH2] (Octanoyl-[hArg]IAG[hArg]IA[hArg]IAG[hArg]IA[hArg]IAG[hArg]IA-NH2) | 32 | 8 | 16 | 2 μl/ml | 4 | 2 | 8 | 2 μl/ml | 256 | 16 | 
CCCCCCCC(=O)N[C@@H](CCCCN)C(=O)N[C@@H](CC(C)C)C(=O)N[C@@H](CCCCN)C(=O)N[C@@H](CCCCN)C(=O)N[C@@H](CC(C)C)C(=O)N[C@@H](CCCCN)C(=O)N[C@@H](CCCCN)C(=O)N[C@@H](CC(C)C)C(=O)N[C@@H](Cc1ccccc1)C(=O)N[C@@H](CCCCN)C(N)=O [Oct-(SEQ ID NO: 148)-NH2] (Octanoyl-KLKKLKKLFK-NH2) |  | 32 | 8 |  |  |  |  |  | 128 |  | 
CCCCCCCC(=O)NCC(=O)N[C@H](C(=O)N[C@@H](CCCCN)C(=O)N[C@@H](CCCCN)C(=O)N[C@@H](Cc1ccccc1)C(=O)N[C@@H](CC(C)C)C(=O)N[C@@H](CCCCN)C(=O)N[C@@H](CCCCN)C(=O)N[C@@H](C)C(=O)NCC(=O)N[C@@H](CCCCN)C(=O)N[C@@H](Cc1ccccc1)C(=O)NCC(=O)N[C@@H](CCCCN)C(=O)N[C@@H](C)C(=O)N[C@@H](Cc1ccccc1)C(N)=O)[C@@H](C)CC [Oct-(SEQ ID NO: 149)-NH2] (Octanoyl-GIKKFLKKAGKFGKAF-NH2) |  | 32 | 16 |  |  |  |  |  | 126 |  | 
CCCCCCCC(=O)N[C@H](CC(C)C)C(=O)N[C@H](CCCCN)C(=O)N[C@H](CCCCN)C(=O)N[C@H](CC(C)C)C(=O)N[C@H](CC(C)C)C(=O)N[C@H](CCCCN)C(=O)N[C@H](CCCCN)C(=O)N[C@H](CC(C)C)C(=O)N[C@H](CCCCN)C(=O)N[C@H](CCCCN)C(=O)N[C@H](CC(C)C)C(N)=O [Oct-D-(SEQ ID NO: 110)-NH2] (Octanoyl-[dL][dK][dK][dL][dL][dK][dK][dL][dK][dK][dL]-NH2) |  | 16 | 4 |  |  |  |  |  | 32 |  | 
CC[C@H](C)[C@H](NC(=O)[C@H](CCCCN)NC(=O)CNC(=O)[C@H](C)NC(=O)[C@@H](NC(=O)[C@H](CCCCN)NC(=O)[C@H](C)NC(=O)[C@@H](NC(=O)[C@H](CCCCN)NC(=O)CNC(=O)[C@H](C)NC(=O)[C@@H](NC(=O)[C@H](CCCCN)NC(=O)[C@H](C)NC(=O)[C@@H](NC(=O)[C@H](CCCCN)NC(=O)CNC(=O)[C@H](C)NC(=O)[C@@H](NC(=O)[C@H](CCCCN)NC(=O)CCC(=O)O)[C@@H](C)CC)[C@@H](C)CC)[C@@H](C)CC)[C@@H](C)CC)[C@@H](C)CC)C(=O)N[C@@H](C)C(N)=O [Suc-((SEQ ID NO: 27)-NH2] (Suc-KIAGKIAKIAGKIAKIAGKIA-NH2) |  | 32 | >256 |  |  |  |  |  | 128 |  | 
CCCCC(=O)N[C@@H](CC(C)C)C(=O)N[C@@H](CCCCN)C(=O)N[C@@H](CCCCN)C(=O)N[C@@H](CC(C)C)C(=O)N[C@@H](CC(C)C)C(=O)N[C@@H](CCCCN)C(=O)N[C@@H](CCCCN)C(=O)N[C@@H](CC(C)C)C(=O)N[C@@H](CCCCN)C(=O)N[C@@H](CCCCN)C(=O)N[C@@H](CC(C)C)C(N)=O [Val-(SEQ ID NO: 110)-NH2] (Pentanoyl-LKKLLKKLKKL-NH2) |  | 32 | 8 |  |  |  |  |  | 32 |  | 
(Lys Ile Ala Lys Lys Ile Ala)3 (KIAKKIAKIAKKIAKIAKKIA-NH2) [(SEQ ID NO. 86)-NH2, unsubstituted at the N-terminal, C-terminal amide] | 4 |  |  | 8 μl/ml | 8 | 4 | 2 | 8,128 μl/ml |  | 16 | 
H-GIKKFLKKAGKFGKAF-NH2 [(SEQ ID NO: 149)-NH2] |  | 32 | 32 |  |  |  |  |  | 64 |  | 
H-KIAGKIAKIAGKIAKIAGKIA-NH2 [(SEQ ID NO: 27)-NH2, (Lys Ile Ala Gly Lys Ile Ala)3] | 16 | 8 |  | 8,128 μl/ml | 128 | 4 | 16 | 64 μl/ml |  | 16 | 64,128 μg/ml
